Here are results for 6 substances from article PMC10667816, “A Cell‐Penetrant Peptide Disrupting the Transcription Factor CP2c Complexes Induces Cancer‐Specific Synthetic Lethality” (Advanced Science, 2023).

One experiment concerns Hep3B. Nature of the experiment: Hep3B CDX mouse model. It is filed as in vivo. The method, then:
Animal experiments were conducted in accordance with ethical guidelines, and all protocols were approved by the Institutional Animal Care and Use Committee under Hanyang University (approval numbers, 2014‐0016A, 2018‐0049A, 2018‐0207A, and 2019‐0169A), Chung‐Ang University (approval number, 2015‐00022), Chungbuk University (approval number, CBNUA‐1072‐17‐02), and Konkuk University (approval number, KU17130). To establish xenograft mice models, Hep3B, A431, U343, and PC9 cells were subcutaneously injected into the flank of Balb/c nude mice. For the MDA‐MB‐231 (LM1) cell line, it was implanted into the mammary fat pad of immunodeficient mice (NPG mice). Once tumors were successfully established, the animals were randomly divided into a control (vehicle) group and an experimental (drug) group. When the tumor volume reached 100 cubic millimeters, either saline or an appropriate concentration of drugs was administrated into mice via tail vein every 3 or 5 days for appropriate duration. Tumor volume was calculated using the formula of length × width^2)/2. To generate an orthotopic liver cancer mice model, 75 mg kg^−1 (mpk) of DEN was intraperitoneally injected weekly for 3 weeks into C57BL/6 mice, followed by 100 mpk of DEN weekly for the subsequent 3 weeks. After 37 weeks of liver cancer induction, mice received either saline or an appropriate concentration of drugs via the tail vein every 5 days for the designated duration. The in vivo administration amount was determined based on the concentration of ACP52C confirmed at the cellular level, which was 2 µM. Assuming an average mouse weight of 30 grams and considering that ≈5.8% of body weight constitutes blood volume,^[ [49] ^] it was calculated that the blood concentration of ACP52C should be ten times the GI50 concentration in cell culture conditions. […] For ACP52C derivatives, the amount was adjusted to ensure a similar molar quantity of peptide injection, taking their molecular weights into account. For instance, in the case of ACP52CGK, ≈1.67 times the quantity was used compared to ACP52C to achieve an equivalent molar quantity. At the time of sacrifice, major organs and tumors were removed and weighed, and blood was extracted. For histological analysis, major organs and tumors of mice were immediately fixed in 10% formalin neutral buffer solution, dehydrated through a graded series of ethanol treatments, treated with xylene, paraffin embedded, and cut into 4 µm sections. Hematoxylin and eosin (H&E)‐stained tissue sections were analyzed and photographed, and the representative histological images were recorded. Liver nodules in the DEN orthotopic liver cancer model were estimated by measuring the ratio of tumor areas over entire liver tissues in the tissue section using an Image J (version 1.51) software at 40× magnification. Complete blood count (CBC) analysis was conducted using a Hematology analyzer (scil Vet ABC) from the extracted blood.

A further experiment concerns the target T1, CP2c (Mus musculus, UniProt Q9ERA0).
T1 construct: extracts from iMEL cells (day 2); endogenous in cells; host or cells: nuclear extract of HMBA-induced MEL (iMEL) cells, day 2
Nature of the experiment: DNA‐IP assay of CP2c DNA binding. It is filed as biochemical. To be noted: 0–3 µM peptide, concentration‐dependent. The protocol: DNA‐IP assay was performed essentially as described previously.^[ [14] ^] Each of the oligonucleotides was mixed and annealed in the TEN buffer. For the radio‐labeling of the DNA probe, the annealed DNA was incubated with a mixture of dATP, dGTP, dTTP, [α^32P]‐dCTP, and Klenow enzyme in reaction buffer (5 mM NaCl, 1 mM Tris HCl, 1 mM MgCl2, and 0.1 mM DTT) for 30 min at 25 °C, and stopped by incubation with EDTA (10 mM final) for 20 min at 75 °C. The radio‐labeled DNA probe was purified by applying the reaction mixture to ProbeQuant G‐50 micro columns (GE healthcare, GE28‐9034‐08). Whole extracts prepared from transfecting 293T cells or purified GST fused CP2c proteins (wildtype and point mutants) were incubated with a [α^32P]‐labeled DNA probe in binding buffer (4% glycerol, 10 mM Tris‐HCl, pH 7.4, 1 mM DTT, 1 mM EDTA, and 0.1% NP‐40) for 15 min at room temperature. Then 0–3 µM of peptides (Pep #5, Pep #8, Pep #5‐1, Pep #5‐2, and Pep #5‐2C) were added to the DNA‐protein mixture, and the mixtures were incubated for 15 min at room temperature (peptide sequences are listed in Table S3, Supporting Information). For IP, precleared extracts were incubated overnight at 4 °C with 1 µg of the following primary antibodies (CP2c, CP2b, and PIAS1). […] The radioactivity of the eluted probe was measured by scintillation counting.

Experiment [1] deals with murine erythroleukemia (MEL) cells. In words: Erythroid differentiation of MEL cells. It is filed as cell-based. To be noted: HMBA‐induced MEL cells, supplementation to the culture. The method, then:
Information of the cell lines is listed in Table S1 (Supporting Information), including their origin and culture conditions. All cell lines were cultured at 37 °C, 5% CO2 incubator. MDA‐MB‐231 (LM1), HepG2, Hep3B, and HCT116 cell lines were authenticated with short tandem repeat markers based on ATCC information. All cell lines tested negative for mycoplasma contamination. Transient downregulation of the gene of interest was conducted by siRNA transfection using Lipofectamine 2000 (Thermo Fisher, 11668019) according to the manufacturer's instructions. Information about siRNAs is provided in Table S2 (Supporting Information). Stable cell lines were established by transfecting cells using Effectene reagent (Qiagen, 301425), followed by selection of cell clones in the presence of 1 µg mL^−1 puromycin (Sigma–Aldrich, P8833). The establishment of cell lines was confirmed by WB or RT‐qPCR. For doxycycline‐inducible gene expression regulation, cell lines were incubated in the presence of 1 µg mL^−1 doxycycline (Sigma–Aldrich, D9891) for 2–3 days. To promote sphere formation of the cell lines, each well of the tissue culture dish was coated with 10% poly 2‐hydroxyethyl methacrylate (polyHEMA). An appropriate number of cells per well were seeded in serum‐free DMEM/F12 (HyClone, SH30023.01) supplemented with B27, 20 ng mL^−1 bFGF, and 20 ng mL^−1 EGF. For erythroid terminal differentiation experiments, differentiation was assessed by hemoglobin staining using a 0.2% (w/v) tetramethylbenzidine solution (Sigma–Aldrich, T0440) in 0.6% hydrogen peroxide, 3% acetic acid for 10 min in dark condition. Benzidine‐positive or negative cell numbers were counted under the inverted microscope BX50 (Olympus) at 200 × magnification. […] After each synchronization, cells were fixed at 4‐h intervals for 24 h with ACP52C treatment, and the cell cycle was analyzed by Propidium Iodide (PI) staining or intracellular protein was analyzed by immunofluorescence. […] This development period was repeated four times for one round, after which GI50 concentrations were re‐assessed in each resistant cell line. […]

Where [2] appears, read: intravenous injection at three‐day intervals, Sorafenib orally once daily as positive control.

Where no end group is shown, it is not given here.

T1 sequence (Q9ERA0 whole entry): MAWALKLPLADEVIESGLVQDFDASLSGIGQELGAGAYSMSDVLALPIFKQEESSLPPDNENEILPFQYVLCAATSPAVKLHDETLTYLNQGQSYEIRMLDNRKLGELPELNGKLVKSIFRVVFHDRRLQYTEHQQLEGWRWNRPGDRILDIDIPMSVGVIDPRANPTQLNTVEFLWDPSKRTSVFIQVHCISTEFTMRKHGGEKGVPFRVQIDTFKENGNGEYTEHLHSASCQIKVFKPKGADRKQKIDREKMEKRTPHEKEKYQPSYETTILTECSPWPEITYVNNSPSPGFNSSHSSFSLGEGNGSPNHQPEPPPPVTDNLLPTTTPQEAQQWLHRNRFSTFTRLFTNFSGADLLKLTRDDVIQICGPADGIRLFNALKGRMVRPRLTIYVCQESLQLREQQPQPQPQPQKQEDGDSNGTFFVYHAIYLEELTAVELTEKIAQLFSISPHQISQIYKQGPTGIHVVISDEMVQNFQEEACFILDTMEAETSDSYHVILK

With “Ac-NYPQRPGG-K(E-pal)-GGCRGDKGPDC-NH2 [ACP52GK, E‐pal attached via αE COO‐ to lysine between ACP52 and iRGD]”, the “anti‐tumor activity” value in the experiment on Hep3B (setting [2]) is reported as “lower anti‐tumor activity compared to ACP52C”.
With “Ac-K(EGFLG-pal)K-GGNYPQRPCRGDKGPDC-NH2 [ACP52CK, ACP52C with enzyme‐cleavable linker GFLG to palmitic acid]”, in the experiment with Hep3B (setting [2]), the “anti‐tumor activity” value is “activity similar to that of Sorafenib”.
Turning to “DHA-GGNYPQRPCRGDKGPDC-NH2 [DHA‐ACP52C, DHA, an unsaturated fatty acid, conjugated at the N‐terminus of ACP52C]”, the figures for the “anti‐tumor activity” value in the experiment on Hep3B (administered at five‐day intervals) and in the experiment with Hep3B (setting [2]) were “noticeably higher activity than ACP52C” and “effectively demonstrated anti‐tumor activity”, respectively.
As for “Ac-K(E-pal)K-GGNYPQRPCRGDKGPDC-NH2 [ACP52CG, palmitic acid linked to lysine at the N‐terminus of ACP52C]”, the “anti‐tumor activity” value in the experiment on Hep3B (setting [2]) is “decrease in anti‐tumor activity, resembling Sorafenib”.
Consider HERRES [Pep #5‐1], for which the “inhibition of DNA binding activity of CP2c” value on CP2c is recorded as “no activity”.
Regarding Ac-HERRESNYPQRPCRGDKGPDC-NH2 [Pep #5C], the “inhibition of erythroid differentiation” value in experiment [1] is “efficiently inhibited erythroid differentiation”.
